Data as given in patent EP4603105A1, “PHARMACEUTICAL COMPOSITION CONTAINING CYCLIC COMPOUND HAVING SELECTIVE KRAS INHIBITORY EFFECT AGAINST HRAS AND NRAS” (CHUGAI SEIYAKU KABUSHIKI KAISHA, priority 2022, dated 2024).

Key:
[1] = molecular target: HRAS wild-type protein (Homo sapiens, UniProt P01112); experiment: Binding to HRAS by surface plasmon resonance (SPR), KD and KD ratio to KRAS; conditions: ratio of KD for HRAS wild-type protein to KD for KRAS
Outline: (§1)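 Compound binding is evaluated by SPR single-cycle kinetics, with concentrations added intermittently from low to high for 75 s each. Target surfaces carry GDP-loaded biotinylated Avi-RAS at about 100–300 RU, regenerated after each cycle; temperature 30°C. A 1:1 binding model gives KD.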

[2] = molecular target: GDP-bound NRAS wild-type protein (Homo sapiens, UniProt P01111); experiment: Binding to NRAS by surface plasmon resonance (SPR), KD and KD ratio to KRAS; conditions: ratio of KD for GDP-bound NRAS wild-type protein to KD for KRAS
Outline: as §1

[3] = test system: human lung cancer strain NCI-H441; assay type: cell-based
Outline: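 Proliferation was scored by […] measured after the reagent was added to cultures kept at 37°C in 5% carbon dioxide.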

Chain of HRAS wild-type protein (P01112 whole entry): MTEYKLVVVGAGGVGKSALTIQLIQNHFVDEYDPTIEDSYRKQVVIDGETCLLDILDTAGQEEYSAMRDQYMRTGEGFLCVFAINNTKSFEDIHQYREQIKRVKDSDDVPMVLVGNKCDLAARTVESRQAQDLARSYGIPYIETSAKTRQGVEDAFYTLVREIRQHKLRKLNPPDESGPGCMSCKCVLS
Chain of GDP-bound NRAS wild-type protein (P01111 whole entry): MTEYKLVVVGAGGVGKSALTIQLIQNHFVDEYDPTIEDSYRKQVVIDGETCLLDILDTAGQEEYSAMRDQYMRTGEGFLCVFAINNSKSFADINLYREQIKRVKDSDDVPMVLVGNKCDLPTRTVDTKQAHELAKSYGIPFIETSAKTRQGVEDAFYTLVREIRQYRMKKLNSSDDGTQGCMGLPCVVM

CCO[C@@H]1C[C@H]2C(=O)NC3(CCC3)C(=O)N(C)[C@@H](C(CC)CC)C(=O)N(C)[C@H](C(=O)N3CCCC3)CC(=O)N(C)[C@H]3CCC/C=C/c4ccc(cc4)C[C@@H](C(=O)N(C)CC(=O)N[C@@H](CCc4ccc(Cl)c(Cl)c4)C(=O)N2C1)N1CC/C=C\C[C@@H](C1=O)N(C)C(=O)CN(C1CC1)C(=O)[C@H]([C@@H](C)CC)NC3=O [PP3040]
HRAS /KRAS [1]: A (a compound having 10 or more and less than 20 is denoted as A)
NRAS /KRAS [2]: AA (a compound having 20 or more is denoted as AA)
IC50 [3]: 10 nM

CCO[C@@H]1C[C@H]2C(=O)NC3(CC(C)(C)C3)C(=O)N(C)[C@@H](C(CC)CC)C(=O)N(C)[C@H](C(=O)N(C)C)CC(=O)N(C)[C@H]3CCCC/C=C/c4ccc(cc4)C[C@@H](C(=O)N(C)CC(=O)N[C@@H](CCc4cc(F)c(C(F)(F)F)c(F)c4)C(=O)N2C1)N1CC/C=C\C[C@@H](C1=O)N(C)C(=O)CN(C)C(=O)[C@H]([C@@H](C)CC)NC3=O [PP3044]
HRAS /KRAS [1]: A (a compound having 10 or more and less than 20 is denoted as A)
NRAS /KRAS [2]: AA (a compound having 20 or more is denoted as AA)
IC50 [3]: 7.1 nM

CCO[C@@H]1C[C@H]2C(=O)NC3(CC(C)(C)C3)C(=O)N(C)[C@@H](C(CC)CC)C(=O)N(C)[C@H](C(=O)N(C)C)CC(=O)N(C)[C@H]3CCCC/C=C/c4ccc(cc4)C[C@@H](C(=O)N(C)CC(=O)N[C@@H](CCc4ccc(Cl)c(Cl)c4)C(=O)N2C1)N1CC/C=C\C[C@@H](C1=O)N(C)C(=O)CN(C)C(=O)[C@H]([C@@H](C)CC)NC3=O [PP3045]
HRAS /KRAS [1]: A (a compound having 10 or more and less than 20 is denoted as A)
NRAS /KRAS [2]: AA (a compound having 20 or more is denoted as AA)
IC50 [3]: 15.9 nM

CCO[C@@H]1C[C@H]2C(=O)NC3(CCC3)C(=O)N(C)[C@@H](C(CC)CC)C(=O)N(C)[C@H](C(=O)N3CCCCC3)CC(=O)N(C)[C@H]3CCCC/C=C/c4ccc(cc4)C[C@@H](C(=O)N(C)CC(=O)N[C@@H](CCc4ccc(Cl)c(Cl)c4)C(=O)N2C1)N1CC/C=C\C[C@@H](C1=O)N(C)C(=O)CN(C)C(=O)[C@H]([C@@H](C)CC)NC3=O [PP3046]
HRAS /KRAS [1]: A (a compound having 10 or more and less than 20 is denoted as A)
NRAS /KRAS [2]: AA (a compound having 20 or more is denoted as AA)
IC50 [3]: 16.7 nM

CCO[C@@H]1C[C@H]2C(=O)NC3(CCC3)C(=O)N(C)[C@@H](C(CC)CC)C(=O)N(C)[C@H](C(=O)N3CCCC3)CC(=O)N(C)[C@H]3CCCC/C=C/c4ccc(cc4)C[C@@H](C(=O)N(C)CC(=O)N[C@@H](CCc4ccc(Cl)c(Cl)c4)C(=O)N2C1)N1CC/C=C\C[C@@H](C1=O)N(C)C(=O)CN(C)C(=O)[C@H]([C@@H](C)CC)NC3=O [PP3047]
HRAS /KRAS [1]: A (a compound having 10 or more and less than 20 is denoted as A)
NRAS /KRAS [2]: AA (a compound having 20 or more is denoted as AA)
IC50 [3]: 6.1 nM

CCO[C@@H]1C[C@H]2C(=O)NC3(CC(C)(C)C3)C(=O)N(C)[C@@H](C(CC)CC)C(=O)N(C)[C@H](C(=O)N(C)C)CC(=O)N(C)[C@H]3CCCCC/C=C/c4ccc(cc4)C[C@@H](C(=O)N(C)CC(=O)N[C@@H](CCc4cc(F)c(C(F)(F)F)c(F)c4)C(=O)N2C1)N1CC/C=C\C[C@@H](C1=O)N(C)C(=O)CN(C)C(=O)[C@H]([C@@H](C)CC)NC3=O [PP3048]
HRAS /KRAS [1]: A (a compound having 10 or more and less than 20 is denoted as A)
NRAS /KRAS [2]: A (a compound having 10 or more and less than 20 is denoted as A)
IC50 [3]: 11.1 nM

CCO[C@@H]1C[C@H]2C(=O)NC3(CCC3)C(=O)N(C)[C@@H](C3CCCC3)C(=O)N(C)[C@H](C(=O)N3CCCC3)CC(=O)N(C)[C@H]3CCCCC/C=C/c4ccc(cc4)C[C@@H](C(=O)N(C)CC(=O)N[C@@H](CCc4ccc(Cl)c(Cl)c4)C(=O)N2C1)N1CC/C=C\C[C@@H](C1=O)N(C)C(=O)CN(C)C(=O)[C@H]([C@@H](C)CC)NC3=O [PP3049]
HRAS /KRAS [1]: A (a compound having 10 or more and less than 20 is denoted as A)
NRAS /KRAS [2]: AA (a compound having 20 or more is denoted as AA)
IC50 [3]: 12.6 nM

CCO[C@@H]1C[C@H]2C(=O)NC3(CC(C)(C)C3)C(=O)N(C)[C@@H](C(CC)CC)C(=O)N(C)[C@H](C(=O)N(C)C)CC(=O)N(C)[C@H]3CCCCC/C=C/c4ccc(cc4)C[C@@H](C(=O)N(C)CC(=O)N[C@@H](CCc4ccc(Cl)c(Cl)c4)C(=O)N2C1)N1CC/C=C\C[C@@H](C1=O)N(C)C(=O)CN(C)C(=O)[C@H]([C@@H](C)CC)NC3=O [PP3050]
HRAS /KRAS [1]: A (a compound having 10 or more and less than 20 is denoted as A)
NRAS /KRAS [2]: AA (a compound having 20 or more is denoted as AA)
IC50 [3]: 19.3 nM

CCO[C@@H]1C[C@H]2C(=O)NC3(CCC3)C(=O)N(C)[C@@H](C(CC)CC)C(=O)N(C)[C@H](C(=O)N3CCCCC3)CC(=O)N(C)[C@H]3CCCCC/C=C/c4ccc(cc4)C[C@@H](C(=O)N(C)CC(=O)N[C@@H](CCc4ccc(Cl)c(Cl)c4)C(=O)N2C1)N1CC/C=C\C[C@@H](C1=O)N(C)C(=O)CN(C)C(=O)[C@H]([C@@H](C)CC)NC3=O [PP3051]
HRAS /KRAS [1]: A (a compound having 10 or more and less than 20 is denoted as A)
NRAS /KRAS [2]: AA (a compound having 20 or more is denoted as AA)
IC50 [3]: 42.1 nM

CCO[C@@H]1C[C@H]2C(=O)NC3(CCC3)C(=O)N(C)[C@@H](C(CC)CC)C(=O)N(C)[C@H](C(=O)N3CCCC3)CC(=O)N(C)[C@H]3CCCCC/C=C/c4ccc(cc4)C[C@@H](C(=O)N(C)CC(=O)N[C@@H](CCc4ccc(Cl)c(Cl)c4)C(=O)N2C1)N1CC/C=C\C[C@@H](C1=O)N(C)C(=O)CN(C)C(=O)[C@H]([C@@H](C)CC)NC3=O [PP3052]
HRAS /KRAS [1]: A (a compound having 10 or more and less than 20 is denoted as A)
NRAS /KRAS [2]: AA (a compound having 20 or more is denoted as AA)
IC50 [3]: 27.6 nM

CC[C@H](C)[C@@H]1NC(=O)[C@@H]2CCC/C=C/c3ccc(cc3)C[C@@H](C(=O)N(C)CC(=O)N[C@@H](CCc3ccc(Cl)c(Cl)c3)C(=O)N3C[C@H](OC4CCC4)C[C@H]3C(=O)NC3(CC(C)(C)C3)C(=O)N(C)[C@@H](C3CCCC3)C(=O)N(C)[C@H](C(=O)N3CCCC3)CC(=O)N2C)N2CC/C=C\C[C@@H](C2=O)N(C)C(=O)CN(C)C1=O [PP3053]
HRAS /KRAS [1]: A (a compound having 10 or more and less than 20 is denoted as A)
NRAS /KRAS [2]: A (a compound having 10 or more and less than 20 is denoted as A)
IC50 [3]: 27 nM

CC[C@H](C)[C@@H]1NC(=O)[C@@H]2CCC/C=C/c3ccc(cc3)C[C@@H](C(=O)N(C)CC(=O)N[C@@H](CCc3ccc(Cl)c(Cl)c3)C(=O)N3C[C@H](OC4CCCC4)C[C@H]3C(=O)NC3(CC(C)(C)C3)C(=O)N(C)[C@@H](C3CCCC3)C(=O)N(C)[C@H](C(=O)N3CCCC3)CC(=O)N2C)N2CC/C=C\C[C@@H](C2=O)N(C)C(=O)CN(C)C1=O [PP3054]
HRAS /KRAS [1]: A (a compound having 10 or more and less than 20 is denoted as A)
NRAS /KRAS [2]: A (a compound having 10 or more and less than 20 is denoted as A)
IC50 [3]: 38.4 nM

CCO[C@@H]1C[C@H]2C(=O)N(C)C3(CC(C)(C)C3)C(=O)N(C)[C@@H](C3CCCC3)C(=O)N(C)[C@H](C(=O)N(C)C)CC(=O)N(C)[C@H]3CCC/C=C/c4ccc(cc4)C[C@@H](C(=O)N(C)CC(=O)N[C@@H](CCc4cc(F)c(C(F)(F)F)c(F)c4)C(=O)N2C1)N1CC/C=C\C[C@@H](C1=O)N(C)C(=O)CN(C)C(=O)[C@H]([C@@H](C)CC)NC3=O [PP3060]
HRAS /KRAS [1]: B (a compound having 3 or more and less than 10 is denoted as B)
NRAS /KRAS [2]: B (a compound having 3 or more and less than 10 is denoted as B)
IC50 [3]: 2.7 nM

CCO[C@@H]1C[C@H]2C(=O)N(C)C3(CC(C)(C)C3)C(=O)N(C)[C@@H](C3CCCC3)C(=O)N(C)[C@H](C(=O)N(C)C)CC(=O)N(C)[C@H]3CCCC/C=C/c4ccc(cc4)C[C@@H](C(=O)N(C)CC(=O)N[C@@H](CCc4ccc(Cl)c(Cl)c4)C(=O)N2C1)N1CC/C=C\C[C@@H](C1=O)N(C)C(=O)CN(C)C(=O)[C@H]([C@@H](C)CC)NC3=O [PP3062]
HRAS /KRAS [1]: A (a compound having 10 or more and less than 20 is denoted as A)
NRAS /KRAS [2]: A (a compound having 10 or more and less than 20 is denoted as A)
IC50 [3]: 6.3 nM

CCCO[C@@H]1C[C@H]2C(=O)NC3(CC(C)(C)C3)C(=O)N(C)[C@@H](C(CC)CC)C(=O)N(C)[C@H](C(=O)N(C)C)CC(=O)N(C)[C@H]3CCCc4ccc(cc4)C[C@@H](C(=O)N(C)CC(=O)N[C@@H](CCc4ccc(C(F)(F)F)c(OC)c4)C(=O)N2C1)N1CC/C=C\C[C@@H](C1=O)N(C)C(=O)CN(C)C(=O)[C@H]([C@@H](C)CC)NC3=O [PP3063]
HRAS /KRAS [1]: B (a compound having 3 or more and less than 10 is denoted as B)
NRAS /KRAS [2]: B (a compound having 3 or more and less than 10 is denoted as B)
IC50 [3]: 32.2 nM

CCCO[C@@H]1C[C@H]2C(=O)NC3(CC(C)(C)C3)C(=O)N(C)[C@@H](C3CCCC3)C(=O)N(C)[C@H](C(=O)N3CCCCC3)CC(=O)N(C)[C@H]3CCCc4ccc(cc4)C[C@@H](C(=O)N(C)CC(=O)N[C@@H](CCc4ccc(C(F)(F)F)c(OC)c4)C(=O)N2C1)N1CC/C=C\C[C@@H](C1=O)N(C)C(=O)CN(C)C(=O)[C@H]([C@@H](C)CC)NC3=O [PP3064]
HRAS /KRAS [1]: B (a compound having 3 or more and less than 10 is denoted as B)
NRAS /KRAS [2]: B (a compound having 3 or more and less than 10 is denoted as B)
IC50 [3]: 26.9 nM
